Experimental data reported in patent US12180252B2, “Peptide derived from PEP27 peptide and uses thereof” (priority 2021, dated 2024).
In brackets after ≈: the same amount, converted by molar mass. Read-outs that look alike come from different tables or passages of the source. Where a SMILES comes first, the peptide text is derived from it.

Key:
L. monocytogens KCTC3710 = format: cell-based, Listeria monocytogenes; conditions: KCTC3710, 18 h
Experimental: (§1) In order to evaluate the antimicrobial activity of the peptides prepared by the method of above 1, a minimal inhibitory concentration (MIC) value as the minimum concentration of a peptide, in which cells are not divided, was measured.
(§2) Specifically, the strains shown in Table 3 below were purchased, cultured in a medium having a constitutional composition suitable for each strain to a mid-log phase, and then diluted to a concentration of 2×10^4 cells/100 μl to prepare the product on a micro-titration plate (Nunc, USA). Then, PEP27, PEP27-1, PEP27-2 or PEP27-5 peptide synthesized in the above 1 was added to each well by serial dilution ½ times, followed by incubation at 37° C. for 18 hours.

MTT cytotoxicity = format: cell-based, human; conditions: human; 100 μM, 24 h, MTT, HaCaT and MCF-7 cells; read-out: cell viability
Experimental: (§3) Specifically, Thiazolyl blue tetrazolium bromide (MTT, Merck KGaA) was used to determine the cytotoxicity of PEP27 and its analogs against HaCaT (human keratinocyte […], n=4 per condition) and MCF-7 (human breast adenocarcinoma, n=3 per condition) cells. The cells were cultured in Dulbecco's modified Eagle's medium (DMEM) supplemented with 10 heat-inactivated fetal bovine serum (FBS, Gibco, Grand Island, NY, USA) and 1% penicillin-streptomycin (Gibco) at a density of 2×10^4 cells/well (96-well plate). Peptides were then added at various concentrations and incubated for 24 h at 37° C., after which MTT (final concentration, 0.5 mg/mL) was added to each well and incubated for 4 h. The formazan product was solubilized in DMSO, and the absorbance at 570 nm was measured to […] cytotoxicity. Cells treated with 0.1% Triton X-100 were used as the 100% cytotoxic control sample.

B. subtilis KCTC1998 = format: cell-based, Bacillus subtilis; conditions: KCTC1998, 18 h
Experimental: as §1, §2

P. aeruginosa ATCC15692 = test: microbe, parasite or virus in culture; conditions: ATCC15692, 18 h
Experimental: as §1, §2
(§4) Specifically, subject strains were prepared by the method of above 2, and were treated with the antibiotics, that is, meropenem, ceftazidime, ceftriaxone or vancomycin, respectively, followed by determining MICs of the antibiotics.

S. aureus CCARM3518 = test: microbe, parasite or virus in culture; conditions: S. aureus CCARM3518, antibiotics-tolerant; 37° C., 18 hours
Experimental: as §1, §2, §4

S. aureus MW2 = test: microbe, parasite or virus in culture; conditions: S. aureus MW2, antibiotics-tolerant; 37° C., 18 hours
Experimental: as §1, §2, §4

S. aureus ATCC29213 = test: microbe, parasite or virus in culture; conditions: ATCC29213, 18 h
Experimental: as §1, §2, §4

P. aeruginosa 4891 = test: microbe, parasite or virus in culture; conditions: 4891, 18 h
Experimental: as §1, §2, §4

S. aureus USA300 = test: microbe, parasite or virus in culture; conditions: S. aureus USA300, antibiotics-tolerant; 37° C., 18 hours
Experimental: as §1, §2, §4

S. aureus CCARM3090 = test: microbe, parasite or virus in culture; conditions: S. aureus CCARM3090, antibiotics-tolerant; 37° C., 18 hours
Experimental: as §1, §2, §4

S. aureus ATCC25923 = test: microbe, parasite or virus in culture; conditions: ATCC25923, 18 h
Experimental: as §1, §2, §4

P. aeruginosa ATCC27853 = test: microbe, parasite or virus in culture; conditions: ATCC27853, 18 h
Experimental: as §1, §2, §4

P. aeruginosa 4007 = test: microbe, parasite or virus in culture; conditions: 4007, 18 h
Experimental: as §1, §2, §4

S. aureus CCARM3089 = test: microbe, parasite or virus in culture; conditions: S. aureus CCARM3089, antibiotics-tolerant; 37° C., 18 hours
Experimental: as §1, §2, §4

[1] = tested on: red blood cells of a rat (Balb/c); conditions: 37° C., 1 hour
Experimental: In order to compare the cytotoxicity of the peptides prepared by the method of above 1, erythrocyte hemolytic activity of each of the synthesized peptides was measured.
Specifically, red blood cells of a rat (Balb/c, 6 weeks old, female) were diluted with PBS (pH 7.0) to a concentration of 8%, and PEP27, PEP27-1, PEP27-2 and PEP27-5 peptides were used for treatment of the cells at concentrations of 3.13, 6.25, 12.5, 25.01 50.0 and 100.0 μM/well, respectively, followed by reaction at 37° C. for 1 hour. Then, an amount of hemoglobin contained in the supernatant obtained by centrifugation at 1,000×g was determined by measuring the absorbance at a wavelength of 414 nm. As a control which is a standard for the degree of cell destruction, the absorbance of the obtained supernatant was measured after treatment using 1% Triton X-100 (Sigma, USA) and reaction at 37° C. for 1 hour. With reference to 100% erythrocytes hemolysis activity, hemolysis of each peptide was calculated from the measured absorbance using Equation 1 below. Erythrocyte destruction ability (%)=(Absorbance A−Absorbance B)/(Absorbance C−Absorbance B)×100 [Equation 1]
(wherein, absorbance A represents the absorbance of a reaction solution treated with each peptide measured at a wavelength of 414 nm; absorbance B represents the absorbance of a reaction solution treated with PBS measured at a wavelength of 414 nm; and absorbance C represents the absorbance of a reaction solution treated with 1% Triton X-100 measured at a wavelength of 414 nm).

[2] = tested on: Sa. typhimurium CCARM8009; format: cell-based, Salmonella typhimurium; conditions: Sa. typhimurium CCARM8009, antibiotics-tolerant; 37° C., 18 hours
Experimental: as §1, §2

[3] = tested on: Sa. typhimurium CCARM8007; format: cell-based, Salmonella typhimurium; conditions: Sa. typhimurium CCARM8007, antibiotics-tolerant; 37° C., 18 hours
Experimental: as §1, §2

Sa. typhimurium KCTC1926 = format: cell-based, Salmonella typhimurium; conditions: KCTC1926, 18 h
Experimental: as §1, §2

E. coli ATCC25922 = format: cell-based, Escherichia coli; conditions: ATCC25922, 18 h
Experimental: as §1, §2

E. coli CCARM1229 = format: cell-based, Escherichia coli; conditions: E. coli CCARM1229, antibiotics-tolerant; 37° C., 18 hours
Experimental: as §1, §2

E. coli CCARM1238 = format: cell-based, Escherichia coli; conditions: E. coli CCARM1238, antibiotics-tolerant; 37° C., 18 hours
Experimental: as §1, §2

E. coli ATCC27325 = format: cell-based, Escherichia coli; conditions: ATCC27325, 18 h
Experimental: as §1, §2

HaCaT and MCF-7 cells = test: MTT cytotoxicity; format: cell-based, human; conditions: 100 μM, 24 h, MTT, HaCaT and MCF-7 cells
Experimental: as §3

[4] = Peptide concentration 100 μM, 100% = 1% Triton X-100

| Structure (SMILES) | Minimal inhibitory concentration (L. monocytogens KCTC3710) | Minimal inhibitory concentration (B. subtilis KCTC1998) | Minimal inhibitory concentration (P. aeruginosa ATCC15692) | Minimal inhibitory concentration (S. aureus CCARM3518) | Minimal inhibitory concentration (S. aureus MW2) | Minimal inhibitory concentration (S. aureus ATCC29213) | Minimal inhibitory concentration (P. aeruginosa 4891) | Minimal inhibitory concentration (S. aureus USA300) | Minimal inhibitory concentration (S. aureus CCARM3090) | Minimal inhibitory concentration (S. aureus ATCC25923) | Minimal inhibitory concentration (P. aeruginosa ATCC27853) | Minimal inhibitory concentration (P. aeruginosa 4007) | Minimal inhibitory concentration (S. aureus CCARM3089) | Erythrocyte destruction ability ([1]; Peptide concentration 3.13 μM) | Erythrocyte destruction ability ([1]; Peptide concentration 6.25 μM) | Erythrocyte destruction ability ([1]; Peptide concentration 12.5 μM) | Erythrocyte destruction ability ([1]; Peptide concentration 25 μM) | Erythrocyte destruction ability ([1]; Peptide concentration 50 μM) | Erythrocyte destruction ability [1, 4] | Minimal inhibitory concentration [2] | other results |
| --- | --- | --- | --- | --- | --- | --- | --- | --- | --- | --- | --- | --- | --- | --- | --- | --- | --- | --- | --- | --- | --- |
| CSCC[C@H](N)C(=O)N[C@@H](Cc1c[nH]c2ccccc12)C(=O)N[C@@H](CCCCN)C(=O)N[C@@H](Cc1c[nH]c2ccccc12)C(=O)N[C@@H](Cc1ccccc1)C(=O)N[C@@H](Cc1c[nH]cn1)C(=O)N[C@@H](CC(N)=O)C(=O)N[C@H](C(=O)N[C@@H](CC(C)C)C(=O)N[C@@H](CO)C(=O)N[C@@H](CO)C(=O)NCC(=O)N[C@@H](CCC(N)=O)C(=O)N[C@@H](CC(C)C)C(=O)N[C@@H](CC(C)C)C(=O)N[C@@H](C)C(=O)N[C@@H](CC(=O)O)C(=O)N[C@@H](CCCCN)C(=O)N[C@@H](Cc1c[nH]c2ccccc12)C(=O)N[C@@H](Cc1c[nH]c2ccccc12)C(=O)N[C@@H](C)C(=O)N[C@@H](Cc1c[nH]c2ccccc12)C(=O)N[C@@H](Cc1c[nH]c2ccccc12)C(=O)N[C@@H](Cc1ccc(O)cc1)C(=O)N[C@@H](CC(N)=O)C(=O)N[C@@H](Cc1c[nH]c2ccccc12)C(=O)N[C@@H](Cc1c[nH]c2ccccc12)C(N)=O)C(C)C [PEP27-5] (H-MWKWFHNVLSSGQLLADKWWAWWYNWW-NH2) | >64 µM | >64 µM | >64 µM | >64 µM | >64 µM | >64 µM | >64 µM | >64 µM | >64 µM | >64 µM | >64 µM | >64 µM | >64 µM | 0% | 0% | 0% | 0% | 2.34% | 3.25% | >64 µM | viability at 24 h, 100 µM (MTT cytotoxicity): 100%; Minimal inhibitory concentration [3]: >64 µM; Minimal inhibitory concentration (Sa. typhimurium KCTC1926): >64 µM; Minimal inhibitory concentration (E. coli ATCC25922): >64 µM; Minimal inhibitory concentration (E. coli CCARM1229): >64 µM; Minimal inhibitory concentration (E. coli CCARM1238): >64 µM; Minimal inhibitory concentration (E. coli ATCC27325): >64 µM |
| CSCC[C@H](N)C(=O)N[C@@H](Cc1c[nH]c2ccccc12)C(=O)N[C@@H](CCCCN)C(=O)N[C@@H](Cc1c[nH]c2ccccc12)C(=O)N[C@@H](Cc1ccccc1)C(=O)N[C@@H](Cc1c[nH]cn1)C(=O)N[C@@H](CC(N)=O)C(=O)N[C@H](C(=O)N[C@@H](CC(C)C)C(=O)N[C@@H](CO)C(=O)N[C@@H](CO)C(=O)NCC(=O)N[C@@H](CCC(N)=O)C(=O)N[C@@H](CC(C)C)C(=O)N[C@@H](CC(C)C)C(=O)N[C@@H](C)C(=O)N[C@@H](CC(=O)O)C(=O)N[C@@H](CCCCN)C(=O)N[C@@H](CCCNC(=N)N)C(=O)N1CCC[C@H]1C(=O)N[C@@H](C)C(=O)N[C@@H](CCCNC(=N)N)C(=O)N[C@@H](CC(=O)O)C(=O)N[C@@H](Cc1ccc(O)cc1)C(=O)N[C@@H](CC(N)=O)C(=O)N[C@@H](CCCNC(=N)N)C(=O)N[C@@H](CCCCN)C(N)=O)C(C)C [PEP27-1] (H-MWKWFHNVLSSGQLLADKRPARDYNRK-NH2) | 64 µM (≈ 212 µg/mL) | 32 µM (≈ 106 µg/mL) | 32 µM (≈ 106 µg/mL) | 32 µM (≈ 106 µg/mL) | 32 µM (≈ 106 µg/mL) | 32 µM (≈ 106 µg/mL) | 32 µM (≈ 106 µg/mL) | 32 µM (≈ 106 µg/mL) | 16 µM (≈ 53.1 µg/mL) | 32 µM (≈ 106 µg/mL) | 32 µM (≈ 106 µg/mL) | 32 µM (≈ 106 µg/mL) | 32 µM (≈ 106 µg/mL) | 0% | 1.05% | 1.97% | 25.75% | 44.51% | 50.65% | 32 µM (≈ 106 µg/mL) | cell viability (HaCaT and MCF-7 cells): 41%-42%; Minimal inhibitory concentration [3]: 32 µM (≈ 106 µg/mL); Minimal inhibitory concentration (Sa. typhimurium KCTC1926): 32 µM (≈ 106 µg/mL); Minimal inhibitory concentration (E. coli ATCC25922): 64 µM (≈ 212 µg/mL); Minimal inhibitory concentration (E. coli CCARM1229): 32 µM (≈ 106 µg/mL); Minimal inhibitory concentration (E. coli CCARM1238): 32 µM (≈ 106 µg/mL); Minimal inhibitory concentration (E. coli ATCC27325): 32 µM (≈ 106 µg/mL) |
